One assay relates to L1 wild-type C. elegans. The conditions noted are these: for Relative Motility: worm motility 3 hours after removal of KCN, relative to DMSO controls, single biological replicate.
Assay [1] concerns the target C. elegans complex II (succinate dehydrogenase) (Caenorhabditis elegans, UniProt O62215+P41956+Q09545). The experiment in a line: In vitro complex II activity assay, C. elegans mitochondria. It is filed as biochemical. The conditions noted are these: single replicate. On the procedure: Mitochondria were isolated from the following free-living nematode strains: C. elegans—N2, CB3474, ECA882, ECA917, ECA1075, ECA1080; C. briggsae—AF16; P. pacificus—PS312; and P. hermaphrodita—B178. With the exception of the P. hermaphrodita strain B178, adult worms of each strain were grown in bulk through liquid culture to obtain mitochondria in sufficient quantities. Due to poor growth in liquid media, mixed stage populations of P. hermaphrodita were washed off and collected from NGM plates seeded with OP50. The isolation of mitochondria from all free-living nematode strains followed the protocol previously outlined in Burns et al.[24]. In brief, a 1 L saturated culture of E. coli HB101 was concentrated 20-fold in 50 mL complete S-medium. ~500,000 L1 worms synchronized from an embryo preparation performed the day prior were added to the S-media/HB101 suspension and grown to adulthood over the course of 3.5 days at 20 °C with shaking at 165 rpm. Following growth, worms were collected in 10 ×15 mL conical tubes and washed 7 times in M9 buffer. Worm suspensions were then combined into a single 15 mL conical tube and diluted to a final volume of 15 mL with M9 buffer. 1 mL aliquots of worm suspension were then distributed to 15 × 1.5 mL screw-cap microcentrifuge tubes and were pelleted at 500 g for 1 min. Excess M9 was aspirated without disturbing the worm pellet. 600 μL ice-cold isolate buffer A (250 mM sucrose, 10 mM Tris (pH 7.5), 1 mM EDTA, 1 mM PMSF (freshly prepared)) and 300 μL cold glass beads were then added to each tube. Tubes were incubated on ice for 10 min, and the worms were then lysed by bead beating (6 x 30 s, with 1 min cooling intervals). Tubes containing worm lysate were centrifuged at 1,000 g for 10 min at 4 °C and the supernatant was transferred to 15 new microcentrifuge tubes on ice. The tubes were centrifuged a second time at 1,000 g for 10 min at 4 °C and the supernatant was once again transferred to 15 new microcentrifuge tubes on ice. These tubes were then centrifuged at 16,000 g for 10 min at 4 °C. The resulting mitochondrial pellet was washed twice by re-suspension in 300 μL of ice-cold isolate buffer B (250 mM sucrose, 10 mM Tris (pH 7.5), 1 mM EDTA). Following the final wash, isolation buffer was aspirated from each tube and the pellets were flash-frozen in ethanol/dry ice and stored at −80 °C until needed.
The enzymatic activities of individual ETC complexes (I-IV) were assessed spectrophotometrically in isolated mitochondria using a Varioskan LUX Multimode plate reader (ThermoFisher Scientific). Mitochondrial pellets previously isolated were thawed on ice and resuspended in ice-cold isolation buffer (250 mM sucrose, 10 mM Tris (pH 7.5), 1 mM EDTA). The BCA assay (Walker, 1994) was used to quantify the protein concentration of mitochondria suspensions; solutions were diluted to a concentration of 0.2 mg/mL for use in all assays. For the complex I assay, mitochondria pellets were freeze-thawed on ice three times to increase enzyme accessibility. […] 20 μL mitochondria suspension was then added/mixed with a pipette to initiate the reaction. Immediately following the addition of mitochondria, absorbance was measured (complex I and II: 600 nm; complex III and IV: 550 nm) in 30 s intervals over 15 min. Enzymatic activity was determined in each reaction by plotting absorbance versus time and calculating the slope of the curve during the initial linear phase of the reaction. […] Percent activity of each complex was calculated by dividing the enzyme-specific activity of each well by the enzyme-specific activity of the corresponding solvent controls.
Complex II (succinate dehydrogenase) activity was assessed using the DCIP-coupled method previously described in Burns et al.[24].
For preliminary screens of hit compounds, compounds were screened at 100 μM; data are the average of at least three biological replicates. The complex I and II activity assays were used for additional dose-response experiments.

Setting [2] is: 50 μM, hit = relative motility below 0.25 3 hours after removal of KCN.

Structures are written as SMILES. “And” between values parts separate entries of the source, which are not always exact repeats. Equal values may be shown once. Read-outs that look alike come from different tables or passages of the source.

C. elegans complex II (succinate dehydrogenase), sequence (P41956 30-182): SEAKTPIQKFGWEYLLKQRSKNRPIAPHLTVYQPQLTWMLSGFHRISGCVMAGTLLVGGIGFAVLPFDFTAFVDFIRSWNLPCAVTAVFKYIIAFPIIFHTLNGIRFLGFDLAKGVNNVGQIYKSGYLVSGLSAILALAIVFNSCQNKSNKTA
C. elegans complex II (succinate dehydrogenase), sequence (Q09545 22-298): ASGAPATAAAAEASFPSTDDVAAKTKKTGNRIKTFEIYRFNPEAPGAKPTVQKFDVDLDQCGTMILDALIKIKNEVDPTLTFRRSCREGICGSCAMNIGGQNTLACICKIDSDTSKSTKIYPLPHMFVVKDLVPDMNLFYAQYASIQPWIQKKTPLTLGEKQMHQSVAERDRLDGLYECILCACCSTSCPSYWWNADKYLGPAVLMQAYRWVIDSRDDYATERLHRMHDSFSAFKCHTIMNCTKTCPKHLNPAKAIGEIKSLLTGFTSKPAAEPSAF
C. elegans complex II (succinate dehydrogenase), sequence (Q09508 32-646, further chain): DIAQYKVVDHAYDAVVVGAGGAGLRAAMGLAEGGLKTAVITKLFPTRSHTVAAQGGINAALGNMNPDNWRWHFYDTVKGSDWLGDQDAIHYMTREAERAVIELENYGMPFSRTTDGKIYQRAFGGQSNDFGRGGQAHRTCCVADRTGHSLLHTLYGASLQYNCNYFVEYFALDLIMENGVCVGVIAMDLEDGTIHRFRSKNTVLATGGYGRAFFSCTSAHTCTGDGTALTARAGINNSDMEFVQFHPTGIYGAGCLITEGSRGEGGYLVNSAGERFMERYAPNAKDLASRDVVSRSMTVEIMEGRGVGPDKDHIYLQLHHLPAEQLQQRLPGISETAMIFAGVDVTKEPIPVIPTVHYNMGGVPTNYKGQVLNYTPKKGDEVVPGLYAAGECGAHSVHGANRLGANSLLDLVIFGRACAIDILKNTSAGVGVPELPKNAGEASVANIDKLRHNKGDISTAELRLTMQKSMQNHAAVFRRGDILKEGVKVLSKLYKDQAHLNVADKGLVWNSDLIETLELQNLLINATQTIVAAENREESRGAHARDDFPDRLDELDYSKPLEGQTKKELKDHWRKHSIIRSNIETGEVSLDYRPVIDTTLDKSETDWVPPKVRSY
C. elegans complex II (succinate dehydrogenase), sequence (O62215 31-145): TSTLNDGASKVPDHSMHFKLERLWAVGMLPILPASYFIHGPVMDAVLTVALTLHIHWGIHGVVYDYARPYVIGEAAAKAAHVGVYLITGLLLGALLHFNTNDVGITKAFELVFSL

Consider `Cc1ccc(C(C)C)cc1OCC(O)Cn1c(C)nc2ccccc21` (centres unmarked) [Compound 7748492], for which the “Screen "Hit"” value in the assay with L1 wild-type C. elegans (setting [2]) is given as “Y (hits were identified as compounds that reduced relative motility below 0.25 (75% reduction))”. Moreover, in the assay with L1 wild-type C. elegans (50 μM), the “Relative Motility” value stood at 0.220.
For `CCOc1ccc(CNc2nc3ccccc3n2CC)cc1` [Compound 7758171] the same measures were “Y (hits were identified as compounds that reduced relative motility below 0.25 (75% reduction))” and 0.180.
For `Cn1c(NCc2cccc(Br)c2)nc2ccccc21` [Compound 7766492] the same measures were “Y (hits were identified as compounds that reduced relative motility below 0.25 (75% reduction))” and 0.130.
Taken in the same sequence, the figures for `CCOc1ccc(CNc2nc3ccccc3n2CCN(CC)CC)cc1` [Compound 7768813] were “Y (hits were identified as compounds that reduced relative motility below 0.25 (75% reduction))” and 0.210.
For `c1ccc(Cn2c(-c3cncs3)nc3ccccc32)cc1` [Compound 7815425], the Hit entry with L1 wild-type C. elegans (active (hit) or inactive (non) at 50 μM in C. elegans assay of RQ-dependent metabolism) is on record as “non”.
For the compound `Brc1cc2nc[nH]c2c2ccccc12` [Compound 7873254], the “Screen "Hit"” value in the assay on L1 wild-type C. elegans (50 μM, hit = relative motility below 0.25 3 hours after the removal of KCN) was “Y (hits were identified as compounds that reduced relative motility below 0.25 (75% reduction))”.
As for `CCC(C)c1ccccc1OCCn1cnc2ccccc21` (centres unmarked) [Compound 7925137], the “Screen "Hit"” value with L1 wild-type C. elegans (setting [2]) is listed as “Y (hits were identified as compounds that reduced relative motility below 0.25 (75% reduction))”. The “Relative Motility” value in the assay with L1 wild-type C. elegans (50 μM) is on record as 0.220.
Consider `c1ccc2c(c1)ncn2CCOc1ccc2c(c1)CCC2` [Compound 7925762], for which the “Screen "Hit"” value in the assay on L1 wild-type C. elegans (50 μM compound, hit = relative motility below 0.25 3 hours after removal of KCN) was “Y (hits were identified as compounds that reduced relative motility below 0.25 (75% reduction))”. Besides, in the assay with L1 wild-type C. elegans (50 μM compound), the “Relative Motility” value came out at 0.250.
Turning to `O=C(O)CC(=O)O` [Malonate], the “Absorbance DCIP [600nm], complex II” value was 0.481 and 0.464 and 0.499 in assay [1] (30 s); 0.480 and 0.464 and 0.499 in assay [1] (60 s); 0.480 and 0.464 and 0.499 in assay [1] (90 s); 0.480 and 0.464 and 0.499 in assay [1] (120 s); 0.480 and 0.463 and 0.499 in assay [1] (150 s); 0.480 and 0.463 and 0.499 in assay [1] (180 s). Also, the “Absorbance DCIP [600nm], complex II” value in assay [1] (210 s) is 0.480 and 0.463 and 0.498; in assay [1] (240 s), 0.480 and 0.463 and 0.498; in assay [1] (270 s), 0.479 and 0.462 and 0.498 and 0.486; in assay [1] (300 s), 0.479 and 0.461 and 0.498 and 0.486; in assay [1] (330 s), 0.478 and 0.461 and 0.497 and 0.485; in assay [1] (360 s) it was 0.477 and 0.460 and 0.496 and 0.484. Besides, the “Absorbance DCIP [600nm], complex II” value in assay [1] (390 s) was 0.476 and 0.460 and 0.495 and 0.483; in assay [1] (420 s), 0.476 and 0.459 and 0.494 and 0.482; in assay [1] (450 s), 0.475 and 0.459 and 0.494 and 0.482; in assay [1] (480 s), 0.475 and 0.458 and 0.494 and 0.481; in assay [1] (510 s), 0.474 and 0.457 and 0.493 and 0.481; in assay [1] (540 s), 0.473 and 0.457 and 0.492 and 0.480. Further, the “Absorbance DCIP [600nm], complex II” value in assay [1] (570 s) is 0.473 and 0.457 and 0.492; in assay [1] (600 s), 0.472 and 0.457 and 0.491; in assay [1] (630 s), 0.471 and 0.457 and 0.491; in assay [1] (660 s), 0.470 and 0.456 and 0.490; in assay [1] (690 s), 0.470 and 0.456 and 0.490; in assay [1] (720 s), 0.470 and 0.455 and 0.489. The “Absorbance DCIP [600nm], complex II” value was 0.470 and 0.455 and 0.489 in assay [1] (750 s); 0.469 and 0.454 and 0.489 in assay [1] (780 s); 0.469 and 0.454 and 0.489 in assay [1] (810 s); 0.470 and 0.453 and 0.490 in assay [1] (840 s); 0.469 and 0.453 and 0.489 in assay [1] (870 s); 0.468 and 0.453 and 0.489 in assay [1] (900 s).

The record behind these values is article PMC11079024, “Identification of a family of species-selective complex I inhibitors as potential anthelmintics” (Nature Communications, 2024).
